Patent US20190343828A1, “CAMPTOTHECIN PEPTIDE CONJUGATES” (SEATTLE GENETICS, INC., priority 2018, published 2019)

Experiments:
[1] = system: B-lymphocyte cancer cells (SU-DHL-4); experiment: In vitro cytotoxicity, CellTiter-Glo 96 h, SU-DHL-4; settings: Homo sapiens, SU-DHL-4, read-out: Cytotoxic potency as free drug, IC50, SU-DHL-4
Procedure: (§1) In vitro potency was assessed on multiple cancer cell lines. All cell lines were authenticated by STR profiling at IDEXX Bioresearch and cultured for no more than 2 months after resuscitation. Cells cultured in log-phase growth were seeded for 24 hours in 96-well plates containing 150 μl RPMI 1640 supplemented with 20% FBS. Serial dilutions of antibody-drug conjugates in cell culture media were prepared at 4× working concentrations, and 50 μl of each dilution was added to the 96-well plates. Following addition of test articles, cells were incubated with test articles for 4 days at 37° C. After 96 hours, growth inhibition was assessed by CellTiter-Glo® (Promega, Madison, Wis.) and luminescence was measured on a plate reader.
(§2) Cell viability was determined by CellTiter-Glo staining after 96 h exposure to ADC. […] Ag1 is an antibody targeting a ubiquitous and readily internalizable antigen on cancer cells, Ag2 is cAC10 antibody targeting CD30(+) cancer cells, Ag3 is h1F6 antibody targeting CD70(+) cancer cells, Ag4 is hMEM102 antibody targeting CD48(+) cancer cells, Ag5 is h20F3 antibody targeting NTB-A expressing cancer cells, and h00 is a non-binding control antibody.

[2] = system: multiple myeloma cells (MM.1R); experiment: In vitro cytotoxicity, CellTiter-Glo 96 h, MM.1R; settings: read-out: Cytotoxic potency (IC50 class), MM.1R
Procedure: as §1, §2

[3] = system: B-lymphocyte cancer cells (U266); experiment: In vitro cytotoxicity, CellTiter-Glo 96 h, U266; settings: Homo sapiens, U-266, read-out: Cytotoxic potency as free drug, IC50, U266
Procedure: as §1, §2

[4] = system: melanoma cells (SK-MEL-5); experiment: In vitro cytotoxicity, CellTiter-Glo 96 h, SK-MEL-5; settings: Homo sapiens, SK-MEL-5, read-out: Cytotoxic potency as free drug, IC50, SK-MEL-5
Procedure: as §1, §2

[5] = system: renal carcinoma cells (786-O); experiment: In vitro cytotoxicity, CellTiter-Glo 96 h, 786-O; settings: Homo sapiens, 786-0, read-out: Cytotoxic potency (IC50 class), 786-O
Procedure: as §1
(§3) Cell viability was determined by CellTiter-Glo staining after 96 h exposure to ADC.

[6] = system: pancreatic cancer cells (BxPC3); experiment: In vitro cytotoxicity, CellTiter-Glo 96 h, BxPC3; settings: Homo sapiens, BXPC-3, read-out: Cytotoxic potency (IC50 class), BxPC3
Procedure: as §1, §3

[7] = system: Burkitt's lymphoma cells (Ramos); experiment: In vitro cytotoxicity, CellTiter-Glo 96 h, Ramos; settings: Homo sapiens, read-out: Cytotoxic potency as free drug, IC50, Ramos
Procedure: as §1, §3

[8] = system: Hodgkin's lymphoma cells (L540cy); experiment: In vitro cytotoxicity, CellTiter-Glo 96 h, L540cy; settings: read-out: Cytotoxic potency (IC50 class), L540cy
Procedure: as §1, §3

[9] = system: multiple drug resistant acute promyelocytic leukemia cells (HL-60/RV); experiment: In vitro cytotoxicity, CellTiter-Glo 96 h, HL60/RV; settings: Homo sapiens, HL-60, read-out: Cytotoxic potency (IC50 class), HL60/RV
Procedure: as §1, §3

[10] = system: acute promyelocytic leukemia cells (HL-60); experiment: In vitro cytotoxicity, CellTiter-Glo 96 h, HL-60; settings: Homo sapiens, HL-60, read-out: Cytotoxic potency (IC50 class), HL-60
Procedure: as §1, §2

[11] = system: acute myeloid leukemia cells (MOLM13); experiment: In vitro cytotoxicity, CellTiter-Glo 96 h, MOLM13; settings: Homo sapiens, MOLM-13, read-out: Cytotoxic potency as free drug, IC50, MOLM13
Procedure: as §1, §3

Row | Compound | IC50 [1] [nM] | IC50 [2] [nM] | IC50 [3] [nM] | IC50 [4] [nM] | IC50 [5] [nM] | IC50 [6] [nM] | IC50 [7] [nM] | IC50 [8] [nM] | IC50 [9] [nM] | IC50 [10] [nM] | IC50 [11] [nM]
1 | CC[C@@]1(O)C(=O)OCc2c1cc1n(c2=O)Cc2c-1nc1cc3c(cc1c2CNC12CC4CC(CC(C4)C1)C2)OCO3 [Compound 5s] | 10 to 100 | 10 to 100 | 10 to 100 | 10 to 100 | 10 to 100 | 10 to 100 | 10 to 100 | 10 to 100 | 10 to 100 | 100 to 1000 | 10 to 100
2 | CC[C@@]1(O)C(=O)OCc2c1cc1n(c2=O)Cc2c-1nc1cc3c(cc1c2CNCCc1ccccc1)OCO3 [Compound 5z] | 1 to 10 | 1 to 10 | 10 to 100 | 10 to 100 | 1 to 10 | 10 to 100 | 1 to 10 | 1 to 10 | 10 to 100 | 10 to 100 | 10 to 100
3 | CC[C@@]1(O)C(=O)OCc2c1cc1n(c2=O)Cc2c-1nc1cc3c(cc1c2CNCCOCCOCCN)OCO3 [Compound 5y] | 1 to 10 | 1 to 10 | 1 to 10 | 1 to 10 | 1 to 10 | 1 to 10 | 0.1 to 1 | 1 to 10 | 10 to 100 | 10 to 100 | 1 to 10
4 | CC[C@@]1(O)C(=O)OCc2c1cc1n(c2=O)Cc2c-1nc1cc3c(cc1c2CNCc1ccc(OC)cc1)OCO3 [Compound 5l] | 1 to 10 | 1 to 10 | 10 to 100 | 10 to 100 | 10 to 100 | 10 to 100 | 1 to 10 | 10 to 100 | 10 to 100 | 10 to 100 | 1 to 10
5 | CC[C@@]1(O)C(=O)OCc2c1cc1n(c2=O)Cc2c-1nc1cc3c(cc1c2CN1CCOCC1)OCO3 [Compound 5g] | 1 to 10 | 1 to 10 | 1 to 10 | 1 to 10 | 1 to 10 | 1 to 10 | 0.1 to 1 | 1 to 10 | 1 to 10 | 1 to 10 | 1 to 10
6 | CC[C@@]1(O)C(=O)OCc2c1cc1n(c2=O)Cc2c-1nc1cc3c(cc1c2CNCCC(c1ccccc1)c1ccccc1)OCO3 [Compound 5o] | 10 to 100 | 10 to 100 | 10 to 100 | 10 to 100 | 10 to 100 | 10 to 100 | 1 to 10 | 1 to 10 | 10 to 100 | 100 to 1000 | 10 to 100
7 | CC[C@@]1(O)C(=O)OCc2c1cc1n(c2=O)Cc2c-1nc1cc3c(cc1c2CNC(=O)CN)OCO3 [Compound 4b] | 10 to 100 | 10 to 100 | 10 to 100 | 100 to 1000 | 100 to 1000 | 100 to 1000 | 10 to 100 | 10 to 100 | – | 100 to 1000 | 10 to 100
8 | CCC(CC)Cc1c2c(nc3cc4c(cc13)OCO4)-c1cc3c(c(=O)n1C2)COC(=O)[C@]3(O)CC [Compound 6g] | 1 to 10 | 1 to 10 | 1 to 10 | 1 to 10 | 1 to 10 | 1 to 10 | 0.1 to 1 | 1 to 10 | 1 to 10 | 10 to 100 | 1 to 10
9 | CC[C@@]1(O)C(=O)OCc2c1cc1n(c2=O)Cc2c-1nc1cc3c(cc1c2CC(C)(C)C)OCO3 [Compound 6n] | 1 to 10 | 1 to 10 | 1 to 10 | 1 to 10 | 1 to 10 | 1 to 10 | 1 to 10 | 1 to 10 | 1 to 10 | 10 to 100 | 1 to 10
10 | CC[C@@]1(O)C(=O)OCc2c1cc1n(c2=O)Cc2c-1nc1cc3c(cc1c2CN(C)C1CCCC[C@H]1NC)OCO3 (stereo partly shown) [Compound 5aa] | 10 to 100 | 10 to 100 | 10 to 100 | 10 to 100 | 10 to 100 | 100 to 1000 | 1 to 10 | 10 to 100 | 100 to 1000 | 100 to 1000 | 10 to 100
11 | CC[C@@]1(O)C(=O)OCc2c1cc1n(c2=O)Cc2c-1nc1cc3c(cc1c2C(C)(C)C)OCO3 [Compound 6l] | 1 to 10 | 1 to 10 | 1 to 10 | 1 to 10 | 1 to 10 | 1 to 10 | 0.1 to 1 | 1 to 10 | 1 to 10 | 1 to 10 | 1 to 10
12 | CCNCc1c2c(nc3cc4c(cc13)OCO4)-c1cc3c(c(=O)n1C2)COC(=O)[C@]3(O)CC [Compound 5a] | 1 to 10 | 1 to 10 | 1 to 10 | 1 to 10 | 1 to 10 | 1 to 10 | 1 to 10 | 1 to 10 | 1 to 10 | 10 to 100 | 1 to 10
13 | CC[C@@]1(O)C(=O)OCc2c1cc1n(c2=O)Cc2c-1nc1cc3c(cc1c2CN(CCO)CCO)OCO3 [Compound 5p] | 10 to 100 | 1 to 10 | 10 to 100 | 10 to 100 | 10 to 100 | 10 to 100 | 1 to 10 | 10 to 100 | 100 to 1000 | 100 to 1000 | 10 to 100
14 | CC[C@@]1(O)C(=O)OCc2c1cc1n(c2=O)Cc2c-1nc1cc3c(cc1c2CNC(=O)CO)OCO3 [Compound 4a] | 10 to 100 | 1 to 10 | 1 to 10 | 1 to 10 | 10 to 100 | 10 to 100 | 10 to 100 | 10 to 100 | 10 to 100 | 10 to 100 | 1 to 10
15 | CC[C@@]1(O)C(=O)OCc2c1cc1n(c2=O)Cc2c-1nc1cc3c(cc1c2CNC)OCO3 [Compound 5] | 1 to 10 | 1 to 10 | 1 to 10 | 1 to 10 | 1 to 10 | 10 to 100 | 1 to 10 | 1 to 10 | 10 to 100 | 10 to 100 | 1 to 10
16 | CCc1c2c(nc3cc4c(cc13)OCO4)-c1cc3c(c(=O)n1C2)COC(=O)[C@]3(O)CC [Compound 6e] | 0.1 to 1 | 0.1 to 1 | 1 to 10 | 1 to 10 | 0.1 to 1 | 1 to 10 | 0.1 to 1 | 0.1 to 1 | 1 to 10 | 1 to 10 | 1 to 10
17 | CC[C@@]1(O)C(=O)OCc2c1cc1n(c2=O)Cc2c-1nc1cc3c(cc1c2-c1ccc(F)cc1)OCO3 [Compound 6] | 0.1 to 1 | 1 to 10 | 1 to 10 | 1 to 10 | 1 to 10 | 1 to 10 | 0.1 to 1 | 0.1 to 1 | 0.1 to 1 | – | 0.1 to 1
18 | CC[C@@]1(O)C(=O)OCc2c1cc1n(c2=O)Cc2c-1nc1cc3c(cc1c2CNC(=O)CCN)OCO3 [Compound 4d] | 10 to 100 | 1 to 10 | 10 to 100 | 10 to 100 | 100 to 1000 | 100 to 1000 | 10 to 100 | 100 to 1000 | – | 100 to 1000 | 10 to 100
19 | CCC(C)c1c2c(nc3cc4c(cc13)OCO4)-c1cc3c(c(=O)n1C2)COC(=O)[C@]3(O)CC (stereo partly shown) [Compound 6b] | 1 to 10 | 1 to 10 | 1 to 10 | 1 to 10 | 1 to 10 | 1 to 10 | 1 to 10 | 1 to 10 | 1 to 10 | – | 1 to 10
20 | CC[C@@]1(O)C(=O)OCc2c1cc1n(c2=O)Cc2c-1nc1cc3c(cc1c2CNCCNC(C)C)OCO3 [Compound 5m] | 10 to 100 | 10 to 100 | 10 to 100 | 100 to 1000 | 10 to 100 | 100 to 1000 | 1 to 10 | 10 to 100 | – | 100 to 1000 | 10 to 100
21 | CC[C@@]1(O)C(=O)OCc2c1cc1n(c2=O)Cc2c-1nc1cc3c(cc1c2C(C)C)OCO3 [Compound 6c] | 0.1 to 1 | 1 to 10 | 1 to 10 | 1 to 10 | 1 to 10 | 1 to 10 | 0.1 to 1 | 1 to 10 | 1 to 10 | – | 1 to 10
22 | CC[C@@]1(O)C(=O)OCc2c1cc1n(c2=O)Cc2c-1nc1cc3c(cc1c2CNC(=O)[C@@H](N)CCC(=O)O)OCO3 [Compound 4e] | – | – | – | – | – | 100 to 1000 | 100 to 1000 | 100 to 1000 | – | – | 100 to 1000
